Source: ChEMBL document CHEMBL4819072, “Radioligand and computational insight in structure - Activity relationship of saccharin derivatives being ipsapirone and revospirone analogues” (Bioorg Med Chem Lett, 2021)
pKi: −log10 of the molar value.

Experiments:
[1] = target: T1, 5-hydroxytryptamine receptor 2C (Homo sapiens, UniProt P28335); assay: Binding affinity to human 5-HT2C
T1 sequence (P28335 whole entry): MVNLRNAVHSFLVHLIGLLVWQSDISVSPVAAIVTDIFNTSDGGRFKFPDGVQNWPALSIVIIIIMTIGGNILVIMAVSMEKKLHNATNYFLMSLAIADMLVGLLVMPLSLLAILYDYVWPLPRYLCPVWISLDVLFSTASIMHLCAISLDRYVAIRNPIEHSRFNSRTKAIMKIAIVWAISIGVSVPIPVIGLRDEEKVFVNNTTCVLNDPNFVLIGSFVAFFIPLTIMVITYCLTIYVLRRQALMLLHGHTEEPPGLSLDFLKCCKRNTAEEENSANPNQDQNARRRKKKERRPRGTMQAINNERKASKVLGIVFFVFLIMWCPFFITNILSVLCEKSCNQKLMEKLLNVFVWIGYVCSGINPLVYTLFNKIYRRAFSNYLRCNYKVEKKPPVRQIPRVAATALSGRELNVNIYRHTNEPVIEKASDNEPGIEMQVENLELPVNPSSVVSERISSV

D(4) dopamine receptor = target: T2, D(4) dopamine receptor (Homo sapiens, UniProt P21917); assay: Binding affinity to human D4R
T2 sequence (P21917 whole entry): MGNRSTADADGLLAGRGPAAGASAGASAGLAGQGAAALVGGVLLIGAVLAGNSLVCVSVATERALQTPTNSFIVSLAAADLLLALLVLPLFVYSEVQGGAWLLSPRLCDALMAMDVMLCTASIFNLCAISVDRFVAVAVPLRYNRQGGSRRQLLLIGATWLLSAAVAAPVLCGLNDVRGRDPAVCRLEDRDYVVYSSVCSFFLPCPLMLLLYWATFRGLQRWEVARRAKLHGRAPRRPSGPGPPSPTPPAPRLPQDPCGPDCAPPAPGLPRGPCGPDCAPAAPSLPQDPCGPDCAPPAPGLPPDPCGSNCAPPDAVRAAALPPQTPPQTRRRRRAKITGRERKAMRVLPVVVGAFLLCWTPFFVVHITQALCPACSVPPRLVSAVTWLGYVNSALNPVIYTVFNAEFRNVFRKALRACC

[2] = target: 5-hydroxytryptamine receptor 2A (Homo sapiens, UniProt P28223); assay: Displacement of [3H]-ketanserin from human 5-HT2AR expressed in CHO cells; type: cell-based
D(2) dopamine receptor = D(2) dopamine receptor (Rattus norvegicus, UniProt P61169); assay: Displacement of [3H]-spiperone from DRD2 in rat striatum incubated for 45 mins by liquid scintillation counting; type: tissue-based
[3] = target: T3, Adrenergic receptor alpha-1 (Homo sapiens, UniProt P35348+P25100+P35368); assay: Binding affinity to human adrenergic receptor alpha1; type: protein assay
T3 sequence (P35348 whole entry): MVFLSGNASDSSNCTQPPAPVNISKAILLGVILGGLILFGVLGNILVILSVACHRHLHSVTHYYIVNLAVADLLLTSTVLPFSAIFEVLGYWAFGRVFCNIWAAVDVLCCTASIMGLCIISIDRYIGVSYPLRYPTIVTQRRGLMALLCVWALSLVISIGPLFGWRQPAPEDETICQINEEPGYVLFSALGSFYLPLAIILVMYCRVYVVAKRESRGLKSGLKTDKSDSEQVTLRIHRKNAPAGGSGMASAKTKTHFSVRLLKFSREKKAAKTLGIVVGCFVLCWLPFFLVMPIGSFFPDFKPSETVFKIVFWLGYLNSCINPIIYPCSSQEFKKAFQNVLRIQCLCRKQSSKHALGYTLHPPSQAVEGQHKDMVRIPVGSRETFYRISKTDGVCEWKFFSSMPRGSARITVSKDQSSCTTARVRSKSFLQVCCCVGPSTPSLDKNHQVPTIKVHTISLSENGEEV
T3 sequence (P25100 whole entry): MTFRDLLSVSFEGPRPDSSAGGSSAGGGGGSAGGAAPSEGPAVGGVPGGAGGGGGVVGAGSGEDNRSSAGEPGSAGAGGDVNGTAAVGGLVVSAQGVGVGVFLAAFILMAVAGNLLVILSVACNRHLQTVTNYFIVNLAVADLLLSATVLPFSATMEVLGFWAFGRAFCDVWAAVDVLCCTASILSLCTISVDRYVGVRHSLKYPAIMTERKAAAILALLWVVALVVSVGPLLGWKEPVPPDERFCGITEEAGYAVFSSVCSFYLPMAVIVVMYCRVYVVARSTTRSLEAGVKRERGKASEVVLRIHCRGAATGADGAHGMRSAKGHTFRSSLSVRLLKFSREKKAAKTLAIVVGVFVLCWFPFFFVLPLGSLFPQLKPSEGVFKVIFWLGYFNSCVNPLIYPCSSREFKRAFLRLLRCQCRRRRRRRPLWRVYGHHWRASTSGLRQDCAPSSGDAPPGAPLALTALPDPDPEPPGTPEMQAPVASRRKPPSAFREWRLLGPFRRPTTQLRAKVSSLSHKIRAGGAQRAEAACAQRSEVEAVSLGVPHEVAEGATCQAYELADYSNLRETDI
T3 sequence (P35368 whole entry): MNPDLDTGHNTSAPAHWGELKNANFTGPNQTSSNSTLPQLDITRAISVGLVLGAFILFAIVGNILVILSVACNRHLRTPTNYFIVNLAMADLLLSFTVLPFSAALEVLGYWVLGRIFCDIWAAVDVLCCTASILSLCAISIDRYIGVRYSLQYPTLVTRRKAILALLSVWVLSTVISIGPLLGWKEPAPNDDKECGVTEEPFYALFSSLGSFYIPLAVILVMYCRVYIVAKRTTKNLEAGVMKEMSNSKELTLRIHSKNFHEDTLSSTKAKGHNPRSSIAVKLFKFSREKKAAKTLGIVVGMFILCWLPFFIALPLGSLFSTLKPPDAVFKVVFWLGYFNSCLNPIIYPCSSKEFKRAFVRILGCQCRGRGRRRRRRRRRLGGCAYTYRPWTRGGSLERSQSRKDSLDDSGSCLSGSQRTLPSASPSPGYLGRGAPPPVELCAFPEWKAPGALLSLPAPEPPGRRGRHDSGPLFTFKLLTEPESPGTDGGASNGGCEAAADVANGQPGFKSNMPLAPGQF

[4] = target: T4, 5-hydroxytryptamine receptor 1A (Rattus norvegicus, UniProt P19327); assay: Displacement of [3H]-[…] from Wistar rat frontal region 5-HT1AR incubated for 30 mins; type: tissue-based, Frontal lobe
T4 sequence (P19327 whole entry): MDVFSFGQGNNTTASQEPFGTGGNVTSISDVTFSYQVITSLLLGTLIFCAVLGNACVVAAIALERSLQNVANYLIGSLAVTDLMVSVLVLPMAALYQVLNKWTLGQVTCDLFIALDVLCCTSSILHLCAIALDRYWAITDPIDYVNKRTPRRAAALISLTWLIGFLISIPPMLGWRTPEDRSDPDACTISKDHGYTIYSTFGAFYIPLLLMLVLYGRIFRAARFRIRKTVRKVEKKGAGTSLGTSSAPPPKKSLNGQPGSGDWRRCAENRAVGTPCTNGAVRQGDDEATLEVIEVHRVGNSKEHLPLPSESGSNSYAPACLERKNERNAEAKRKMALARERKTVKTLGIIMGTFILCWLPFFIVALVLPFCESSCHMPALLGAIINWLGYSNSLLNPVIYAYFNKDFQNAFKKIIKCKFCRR

D(1A) dopamine receptor = D(1A) dopamine receptor (Homo sapiens, UniProt P21728); assay: Binding affinity to human D1R
[5] = target: T5, 5-hydroxytryptamine receptor 1A (Homo sapiens, UniProt P08908); assay: Displacement of [3H]-[…] from human 5-HT1AR expressed in human HEK293 cells; type: cell-based
T5 sequence (P08908 whole entry): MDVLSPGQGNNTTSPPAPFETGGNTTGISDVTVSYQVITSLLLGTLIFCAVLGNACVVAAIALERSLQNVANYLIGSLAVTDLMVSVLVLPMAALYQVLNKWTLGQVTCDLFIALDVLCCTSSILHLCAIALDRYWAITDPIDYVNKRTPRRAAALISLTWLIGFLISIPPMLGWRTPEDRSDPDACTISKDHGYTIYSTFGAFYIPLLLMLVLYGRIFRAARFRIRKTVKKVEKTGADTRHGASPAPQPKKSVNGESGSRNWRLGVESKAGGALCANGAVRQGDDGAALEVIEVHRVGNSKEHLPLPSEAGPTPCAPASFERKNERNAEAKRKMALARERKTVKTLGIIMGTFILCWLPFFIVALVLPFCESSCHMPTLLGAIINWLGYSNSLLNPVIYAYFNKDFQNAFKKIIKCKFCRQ

5-hydroxytryptamine receptor 2A, sequence (P28223 whole entry): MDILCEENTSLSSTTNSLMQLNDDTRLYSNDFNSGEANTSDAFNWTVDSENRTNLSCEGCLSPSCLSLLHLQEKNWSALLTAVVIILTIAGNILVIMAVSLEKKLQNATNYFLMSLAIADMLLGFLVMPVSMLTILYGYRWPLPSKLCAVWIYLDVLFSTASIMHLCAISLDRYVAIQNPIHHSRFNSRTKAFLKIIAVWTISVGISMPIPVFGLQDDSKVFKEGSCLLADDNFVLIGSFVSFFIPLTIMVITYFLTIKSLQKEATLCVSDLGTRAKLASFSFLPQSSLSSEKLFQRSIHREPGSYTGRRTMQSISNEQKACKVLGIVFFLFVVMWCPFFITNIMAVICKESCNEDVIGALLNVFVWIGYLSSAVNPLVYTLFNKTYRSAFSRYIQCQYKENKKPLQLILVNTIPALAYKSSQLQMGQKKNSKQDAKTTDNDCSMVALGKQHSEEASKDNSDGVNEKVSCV
D(1A) dopamine receptor, sequence (P21728 whole entry): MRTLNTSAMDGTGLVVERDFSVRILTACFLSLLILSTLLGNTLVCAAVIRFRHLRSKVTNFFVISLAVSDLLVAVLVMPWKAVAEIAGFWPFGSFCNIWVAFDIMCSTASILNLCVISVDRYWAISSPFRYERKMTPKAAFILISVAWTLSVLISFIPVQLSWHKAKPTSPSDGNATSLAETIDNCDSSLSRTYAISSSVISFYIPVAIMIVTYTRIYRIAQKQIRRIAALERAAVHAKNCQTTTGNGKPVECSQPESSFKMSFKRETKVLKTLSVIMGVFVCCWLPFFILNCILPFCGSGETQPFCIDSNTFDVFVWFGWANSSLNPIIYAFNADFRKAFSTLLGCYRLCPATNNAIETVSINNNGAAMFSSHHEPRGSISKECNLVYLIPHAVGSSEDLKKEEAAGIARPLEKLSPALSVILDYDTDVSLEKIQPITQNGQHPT
D(2) dopamine receptor, sequence (P61169 whole entry): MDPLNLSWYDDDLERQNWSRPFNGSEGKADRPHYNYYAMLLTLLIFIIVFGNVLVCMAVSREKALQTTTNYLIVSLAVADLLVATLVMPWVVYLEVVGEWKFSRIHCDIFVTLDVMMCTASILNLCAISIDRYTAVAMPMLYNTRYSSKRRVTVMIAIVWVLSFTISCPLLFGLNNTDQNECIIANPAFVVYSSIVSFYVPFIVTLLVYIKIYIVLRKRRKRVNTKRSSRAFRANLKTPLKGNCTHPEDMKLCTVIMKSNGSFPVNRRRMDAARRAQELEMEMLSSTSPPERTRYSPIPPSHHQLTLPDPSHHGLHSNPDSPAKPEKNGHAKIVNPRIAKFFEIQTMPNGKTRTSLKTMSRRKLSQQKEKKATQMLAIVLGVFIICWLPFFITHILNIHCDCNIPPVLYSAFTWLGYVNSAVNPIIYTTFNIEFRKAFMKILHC

Work on `O=C1c2ccccc2S(=O)(=O)N1CCCCN1CCN(c2cccc(C(F)(F)F)c2)CC1` yielded a pKi [1] of less than 5.30, a pKi (D(4) dopamine receptor) of less than 5.30 and a pKi [2] of 5.65. The pKi (D(2) dopamine receptor) was 5.65, the Ki [3] was 1.5 µM and the pKi [4] was 7.00. It also gave a pKi (D(1A) dopamine receptor) of less than 5.30 and a pKi [5] of 7.00.
